Data set [1] is described as follows: Measurement of absorbance and fluorescence of synthesized compound in ethanol. The following applies: 10 μM in ethanol; for λem: Maximum emission wavelength / λex: Maximum excitation wavelength: average of three measurements; for Stokes shift: difference between excitation and emission. The format is physicochemical. The procedure: In order to investigate the optical properties of the newly synthesized compound in the present invention, the absorbance was measured using a V-730 UV-visible spectrophotometer manufactured by JASCO, and fluorescence was measured using a FlexStation 3 multi-mode microplate reader manufactured by Molecular Devices. Absorbance and fluorescence were measured three times at a concentration of 10 μM in ethanol, and the average thereof is shown in Table 1 below. At this time, T807 (AV-1451) as a Tau positron-emission-tomography (PET) tracer and Thioflavin S, which are commercially available to detect tau production in vivo, were used as a control group.

Data set [2] concerns the target T1, tau aggregates (Tau-K18 protein) (Homo sapiens, UniProt P10636).
T1 construct: aggregation of Tau-K18 protein (0.5 mg/ml in PBS) purified and isolated from E. coli; made in house; host or cells: E. coli
The data set is described as follows: In vitro binding assay (fluorescence labeling ability) to tau aggregates. To be noted: for SIaβ: selectivity index = fluorescence intensity of probe bound to Tau aggregate / bound to Aβ aggregate / SItaumono: selectivity index, tau aggregate versus tau monomer / FItau: fold increase = fluorescence intensity of probe bound to tau aggregate / probe (free): compound 10 μM; for FItau: fold increase = fluorescence intensity of probe bound to tau aggregate / probe (free): PBS, 30 min incubation; for selectivity for tau aggregates over amyloid aggregates: in vitro screening as fluorescent probes. The procedure: (§1) Experimental Example 2-1: Tau and amyloid beta aggregation induction For amyloid aggregation induction, the synthesized Abeta40 (Amyloid Beta 40) peptide was dissolved in PBS at a concentration of 0.5 mg/ml to induce aggregation for 7 days at 37° C. and 200 rpm with shaking. To induce aggregation of tau proteins, aggregation of Tau-K18 protein (0.5 mg/ml in PBS) purified and isolated from E. coli with heparin (0.1 mg/ml) and DTT (100 μM) was induced at 37° C. and 200 rpm for 7 days under shaking conditions. […] At this time, thioflavin S (Th S), which is known to bind to beta-sheet structures such as tau and amyloid aggregates, was used as a control group (Ex: 430 nm, Em: 480-610 nm). Specifically, in order to determine the labeling ability of newly synthesized compounds to tau aggregate proteins, a 25 μl dilution of a 10 μM labeling substance in PBS and 25 id of a 0.125 mg/ml tau or amyloid pre-aggregate or aggregate diluted in PBS were each incubated for 30 minutes, and then a fluorescence spectrum reaction was measured using a spectrophotometer. Selectivity analysis for tau aggregates and amyloid beta aggregates of the novel synthetic compounds of the present invention was performed as described above, and the resulting in vitro fluorescence changes are summarized in Table 2 and FIG. 1 below.

In data set [3] the target is T2, amyloid beta aggregates (Abeta40) (Homo sapiens, UniProt P05067).
T2 construct: the synthesized Abeta40 (Amyloid Beta 40) peptide was dissolved in PBS; host or cells: synthetic peptide
T2 sequence (P05067 672-711 limits assumed): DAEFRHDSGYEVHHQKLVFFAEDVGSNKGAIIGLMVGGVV
The data set is described as follows: In vitro binding assay (fluorescence labeling ability) to amyloid beta aggregates. To be noted: compound 10 μM, PBS, 30 min incubation. The procedure: as §1

Data set [4] concerns the target bovine serum albumin (BSA) (Bos taurus, UniProt P02769). Nature of the data set: Measurement of non-specific binding using BSA. To be noted: compound 10 μM, 0.25 mg/ml BSA, 30 min incubation. On the procedure: In order to exclude non-specific binding of the compound to serum, reactivity between the compound and bovine serum albumin (BSA) was further tested. 25 μl of a 10 μM compound was incubated along with 25 μl of 0.25 mg/ml BSA for 30 minutes, and then the fluorescence spectrum reaction was measured using a spectrophotometer. The BSA response was conducted to identify non-selective binding to other proteins in the blood when applied to patients as an imaging agent.

SMILES strings stand for the structures.

T1 sequence (P10636 561-685 limits assumed): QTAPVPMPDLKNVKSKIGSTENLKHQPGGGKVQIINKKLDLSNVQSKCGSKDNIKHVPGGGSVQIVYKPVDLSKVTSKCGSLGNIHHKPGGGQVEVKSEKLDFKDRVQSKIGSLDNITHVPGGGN
Chain of bovine serum albumin (BSA) (P02769 25-607): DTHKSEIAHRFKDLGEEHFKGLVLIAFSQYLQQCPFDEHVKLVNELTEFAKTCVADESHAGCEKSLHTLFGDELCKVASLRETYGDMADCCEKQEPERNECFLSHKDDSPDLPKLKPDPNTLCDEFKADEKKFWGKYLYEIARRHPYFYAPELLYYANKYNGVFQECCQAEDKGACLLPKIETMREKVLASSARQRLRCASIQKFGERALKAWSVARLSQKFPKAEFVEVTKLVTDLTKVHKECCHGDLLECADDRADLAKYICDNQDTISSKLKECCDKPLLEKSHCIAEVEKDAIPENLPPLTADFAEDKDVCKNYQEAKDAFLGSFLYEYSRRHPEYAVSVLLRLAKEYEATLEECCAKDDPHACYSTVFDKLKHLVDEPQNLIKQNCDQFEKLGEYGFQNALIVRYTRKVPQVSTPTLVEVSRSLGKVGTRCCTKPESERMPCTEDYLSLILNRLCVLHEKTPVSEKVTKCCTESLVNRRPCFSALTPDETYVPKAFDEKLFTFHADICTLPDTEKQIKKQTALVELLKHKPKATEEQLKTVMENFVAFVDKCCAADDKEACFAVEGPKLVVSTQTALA

Consider `COc1ccc2nc(/C=C/C(=O)c3ccc(N(C)C)cc3)ccc2c1` [Compound 13a, (E)-1-(4-(dimethylamino)phenyl)-3-(6-methoxyquinolin-2-yl)prop-2-en-1-one], for which, in data set [1], the “λem: Maximum emission wavelength” value is on record as 601 nm, the “λex: Maximum excitation wavelength” value is recorded as 339 nm and the Stokes shift was determined as 202 nm. For the same molecule, in data set [2], the “SIaβ: selectivity index = fluorescence intensity of probe bound to Tau aggregate / bound to Aβ aggregate” value amounted to 4.6; the “SItaumono: selectivity index, tau aggregate versus tau monomer” value (from here on “SItaumono: selectivity index”) is 5.2; the “FItau: fold increase = fluorescence intensity of probe bound to tau aggregate / probe (free)” value is recorded as 5.12; the “selectivity for tau aggregates over amyloid aggregates” value is listed as 4.6 times. In addition, the “FIAβ: fold increase = fluorescence intensity of probe bound to Aβ aggregate / probe (free)” value in data set [3] worked out at 1.10. Also, in data set [4], the “FIBSA: fold increase = fluorescence intensity of probe bound to BSA / probe (free)” value is reported as 1.23.
Take `Nc1ccc(C(=O)/C=C/c2ccc3cc(O)ccc3n2)cc1` [Compound 13c, (E)-1-(4-aminophenyl)-3-(6-hydroxyquinolin-2-yl)prop-2-en-1-one]: in data set [1], the “λem: Maximum emission wavelength” value is 570 nm, the “λex: Maximum excitation wavelength” value came out at 378 nm and the Stokes shift is 192 nm. In addition, in data set [2], the “SIaβ: selectivity index = fluorescence intensity of probe bound to Tau aggregate / bound to Aβ aggregate” value was 2.8; the “SItaumono: selectivity index” value was 3.2; the “FItau: fold increase = fluorescence intensity of probe bound to tau aggregate / probe (free)” value turned out to be 4.63. In addition, the “FIAβ: fold increase = fluorescence intensity of probe bound to Aβ aggregate / probe (free)” value in data set [3] was 1.67. For the same molecule, the “FIBSA: fold increase = fluorescence intensity of probe bound to BSA / probe (free)” value in data set [4] is 1.72.
For the molecule `COc1ccc2nc(/C=C/C(=O)c3ccc(C)cc3)ccc2c1` [Compound 13d, (E)-1-(4-tolyl)-3-(6-methoxyquinolin-2-yl)prop-2-en-1-one], in data set [1], the “λem: Maximum emission wavelength” value is given as 454 nm, the “λex: Maximum excitation wavelength” value worked out at 314 nm and the Stokes shift is reported as 140 nm. Also, in data set [2], the “SIaβ: selectivity index = fluorescence intensity of probe bound to Tau aggregate / bound to Aβ aggregate” value worked out at 3.2; the “SItaumono: selectivity index” value is recorded as 4.8; the “FItau: fold increase = fluorescence intensity of probe bound to tau aggregate / probe (free)” value came to 6.05. The “FIAβ: fold increase = fluorescence intensity of probe bound to Aβ aggregate / probe (free)” value in data set [3] was determined as 1.88. Further, in data set [4], the “FIBSA: fold increase = fluorescence intensity of probe bound to BSA / probe (free)” value is on record as 1.57.
With `COc1ccc2nc(/C=C/C(=O)c3ccc(Br)cc3)ccc2c1` [Compound 13e, (E)-1-(4-bromophenyl)-3-(6-methoxyquinolin-2-yl)prop-2-en-1-one], in data set [1], the “λem: Maximum emission wavelength” value was 415 nm, the “λex: Maximum excitation wavelength” value was 314 nm and the Stokes shift stood at 101 nm. In data set [2], the “SIaβ: selectivity index = fluorescence intensity of probe bound to Tau aggregate / bound to Aβ aggregate” value stood at 3.8; the “SItaumono: selectivity index” value was 2.2; the “FItau: fold increase = fluorescence intensity of probe bound to tau aggregate / probe (free)” value was 5.18; the “selectivity for tau aggregates over amyloid aggregates” value stood at 3.8 times. Also, in data set [3], the “FIAβ: fold increase = fluorescence intensity of probe bound to Aβ aggregate / probe (free)” value was found to be 1.37. Besides, the “FIBSA: fold increase = fluorescence intensity of probe bound to BSA / probe (free)” value in data set [4] is recorded as 1.39.
As for `COc1ccc2nc(/C=C/c3ccc(C(F)(F)F)cc3)ccc2c1` [Compound 14a, (E)-6-methoxy-2-(4-(trifluoromethyl)styryl)quinolone], in data set [1], the “λem: Maximum emission wavelength” value is recorded as 415 nm, the “λex: Maximum excitation wavelength” value was found to be 359 nm and the Stokes shift stood at 56 nm. Besides, in data set [2], the “SIaβ: selectivity index = fluorescence intensity of probe bound to Tau aggregate / bound to Aβ aggregate” value stood at 1.9; the “SItaumono: selectivity index” value was 2.0; the “FItau: fold increase = fluorescence intensity of probe bound to tau aggregate / probe (free)” value turned out to be 1.01. In addition, the “FIAβ: fold increase = fluorescence intensity of probe bound to Aβ aggregate / probe (free)” value in data set [3] was found to be 0.54. Also, the “FIBSA: fold increase = fluorescence intensity of probe bound to BSA / probe (free)” value in data set [4] is listed as 0.60.
Consider `COc1ccc2nc(/C=C/c3ccncc3)ccc2c1` [Compound 14b, (E)-6-methoxy-2-(2-(pyridin-4-yl)vinyl)quinolone], for which, in data set [1], the “λem: Maximum emission wavelength” value was determined as 420 nm, the “λex: Maximum excitation wavelength” value was determined as 357 nm and the Stokes shift amounted to 63 nm. Also, in data set [2], the “SIaβ: selectivity index = fluorescence intensity of probe bound to Tau aggregate / bound to Aβ aggregate” value came to 1.4; the “SItaumono: selectivity index” value came out at 1.3; the “FItau: fold increase = fluorescence intensity of probe bound to tau aggregate / probe (free)” value came out at 0.79. Besides, in data set [3], the “FIAβ: fold increase = fluorescence intensity of probe bound to Aβ aggregate / probe (free)” value worked out at 0.57. Also, the “FIBSA: fold increase = fluorescence intensity of probe bound to BSA / probe (free)” value in data set [4] is on record as 0.61.
As to `CNc1ccc(/C=C/C=C/c2ccc3cc(OC)ccc3n2)cc1` [Compound 15b, 4-((1E,3E)-4-(6-methoxyquinolin-2-yl)buta-1,3-dien-1-yl)-N-methylanaline], in data set [1], the “λem: Maximum emission wavelength” value was found to be 602 nm, the “λex: Maximum excitation wavelength” value amounted to 400 nm and the Stokes shift came to 202 nm. In data set [2], the “SIaβ: selectivity index = fluorescence intensity of probe bound to Tau aggregate / bound to Aβ aggregate” value is 2.0; the “SItaumono: selectivity index” value stood at 3.6; the “FItau: fold increase = fluorescence intensity of probe bound to tau aggregate / probe (free)” value is reported as 0.63. For the same molecule, the “FIAβ: fold increase = fluorescence intensity of probe bound to Aβ aggregate / probe (free)” value in data set [3] came out at 0.32. The “FIBSA: fold increase = fluorescence intensity of probe bound to BSA / probe (free)” value in data set [4] turned out to be 0.26.
`COc1ccc2nc(/C=C/C=C/c3ccc(N(C)C)cc3)ccc2c1` [Compound 15c, 4-((1E,3E)-4-(6-methoxyquinolin-2-yl)buta-1,3-dien-1-yl)-N,N-dimethylaniline]: in data set [1], the “λem: Maximum emission wavelength” value is reported as 600 nm, the “λex: Maximum excitation wavelength” value is reported as 399 nm and the Stokes shift is listed as 201 nm. In data set [2], the “SIaβ: selectivity index = fluorescence intensity of probe bound to Tau aggregate / bound to Aβ aggregate” value stood at 1.2; the “SItaumono: selectivity index” value worked out at 3.9; the “FItau: fold increase = fluorescence intensity of probe bound to tau aggregate / probe (free)” value is reported as 0.81. In data set [3], the “FIAβ: fold increase = fluorescence intensity of probe bound to Aβ aggregate / probe (free)” value is 0.18. In data set [4], the “FIBSA: fold increase = fluorescence intensity of probe bound to BSA / probe (free)” value was found to be 0.19.
On to `COc1ccc2nc(/C=C/C=C/c3ccc(N(C)C)nc3)ccc2c1` [Compound 15d, 5-((1E,3E)-4-(6-methoxyquinolin-2-yl)buta-1,3-dien-1-yl)-N,N-dimethylpyridin-2-amine], for which, in data set [1], the “λem: Maximum emission wavelength” value came to 520 nm, the “λex: Maximum excitation wavelength” value is reported as 402 nm and the Stokes shift was 118 nm. In data set [2], the “SIaβ: selectivity index = fluorescence intensity of probe bound to Tau aggregate / bound to Aβ aggregate” value is reported as 1.1; the “SItaumono: selectivity index” value was 1.3; the “FItau: fold increase = fluorescence intensity of probe bound to tau aggregate / probe (free)” value came out at 1.33. The “FIAβ: fold increase = fluorescence intensity of probe bound to Aβ aggregate / probe (free)” value in data set [3] is given as 1.25. The “FIBSA: fold increase = fluorescence intensity of probe bound to BSA / probe (free)” value in data set [4] was determined as 1.05.
On to `COc1ccc2nc(/C=C/C=C/c3ccc([N+](=O)[O-])nc3)ccc2c1` [Compound 15e, 6-methoxy-2-((1E,3E)-4-(6-nitropyridin-3-yl)buta-1,3-dien-1-yl)quinolone], for which, in data set [1], the “λem: Maximum emission wavelength” value stood at 587 nm, the “λex: Maximum excitation wavelength” value amounted to 389 nm and the Stokes shift is on record as 198 nm. For the same molecule, in data set [2], the “SIaβ: selectivity index = fluorescence intensity of probe bound to Tau aggregate / bound to Aβ aggregate” value is 2.2; the “SItaumono: selectivity index” value is reported as 4.5; the “FItau: fold increase = fluorescence intensity of probe bound to tau aggregate / probe (free)” value came to 0.95. In data set [3], the “FIAβ: fold increase = fluorescence intensity of probe bound to Aβ aggregate / probe (free)” value stood at 0.44. Besides, in data set [4], the “FIBSA: fold increase = fluorescence intensity of probe bound to BSA / probe (free)” value is 0.17.
In the case of `Fc1ccc(-c2ccc3c(c2)[nH]c2ccncc23)cn1` [Compound T807, reference compound], in data set [1], the “λem: Maximum emission wavelength” value was 369 nm, the “λex: Maximum excitation wavelength” value turned out to be 304 nm and the Stokes shift was determined as 65 nm.

The record behind these values is patent publication US12050224B2, “Compounds useful as near-infrared fluorescent probes selectively binding to tau aggregates and method of preparing the same” (KOREA INSTITUTE OF SCIENCE AND TECHNOLOGY, priority 2020, dated 2024).
